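Results reflect a 48-hour exposure of cells in 96-well plates to compound at five concentrations. TGI: concentration producing complete growth inhibition.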
Tests used:
Test in all cases: DTP human tumour cell line panel, 48 h
786-0 renal = system: 786-0 renal
A549 NSCLC = system: A549 NSCLC
ACHN renal = system: ACHN renal
BT-549 breast = system: BT-549 breast
CAKI-1 renal = system: CAKI-1 renal
COLO 205 colon = system: COLO 205 colon
EKVX NSCLC = system: EKVX NSCLC
HCC-2998 colon = system: HCC-2998 colon
HCT-116 colon = system: HCT-116 colon
HCT-15 colon = system: HCT-15 colon
HOP-62 NSCLC = system: HOP-62 NSCLC
HS 578T breast = system: HS 578T breast
HT29 colon = system: HT29 colon
IGROV1 ovarian = system: IGROV1 ovarian
K-562 leukemia = system: K-562 leukemia
KM12 colon = system: KM12 colon
LOX IMVI melanoma = system: LOX IMVI melanoma
M14 melanoma = system: M14 melanoma
MALME-3M melanoma = system: MALME-3M melanoma
MCF7 breast = system: MCF7 breast
MDA-MB-231 breast = system: MDA-MB-231 breast
MDA-MB-435 = system: MDA-MB-435
MDA-N = system: MDA-N
MOLT-4 leukemia = system: MOLT-4 leukemia
NCI-H226 lung = system: NCI-H226 lung
NCI-H23 lung = system: NCI-H23 lung
NCI-H460 lung = system: NCI-H460 lung
NCI/ADR-RES ovarian = system: NCI/ADR-RES ovarian
OVCAR-3 ovarian = system: OVCAR-3 ovarian
OVCAR-4 ovarian = system: OVCAR-4 ovarian
OVCAR-5 ovarian = system: OVCAR-5 ovarian
OVCAR-8 ovarian = system: OVCAR-8 ovarian
PC-3 prostate = system: PC-3 prostate
RPMI-8226 leukemia = system: RPMI-8226 leukemia
SF-268 CNS = system: SF-268 CNS
SF-295 CNS = system: SF-295 CNS
SF-539 CNS = system: SF-539 CNS
SK-MEL-2 melanoma = system: SK-MEL-2 melanoma
SK-MEL-28 melanoma = system: SK-MEL-28 melanoma
SK-MEL-5 melanoma = system: SK-MEL-5 melanoma
SK-OV-3 ovarian = system: SK-OV-3 ovarian
SN12C renal = system: SN12C renal
SNB-19 CNS = system: SNB-19 CNS
SNB-75 CNS = system: SNB-75 CNS
SR leukemia = system: SR leukemia
SW-620 colon = system: SW-620 colon
T-47D breast = system: T-47D breast
TK-10 renal = system: TK-10 renal
U251 CNS = system: U251 CNS
UACC-257 melanoma = system: UACC-257 melanoma
UACC-62 melanoma = system: UACC-62 melanoma
UO-31 renal = system: UO-31 renal
A498 renal = system: A498 renal
CCRF-CEM leukemia = system: CCRF-CEM leukemia
DU-145 prostate = system: DU-145 prostate
HL-60(TB) leukemia = system: HL-60(TB) leukemia
HOP-92 NSCLC = system: HOP-92 NSCLC
NCI-H522 lung = system: NCI-H522 lung
RXF 393 renal = system: RXF 393 renal

## CN(C)/C(N)=N/C(N)=Nc1cccc(Cl)c1
786-0 renal
  TGI: > 100 µM
A549 NSCLC
  TGI: > 100 µM
ACHN renal
  TGI: > 100 µM
BT-549 breast
  TGI: 92.5 µM
CAKI-1 renal
  TGI: > 100 µM
COLO 205 colon
  TGI: 49.8 µM
EKVX NSCLC
  TGI: > 100 µM
HCC-2998 colon
  TGI: > 100 µM
HCT-116 colon
  TGI: > 100 µM
HCT-15 colon
  TGI: > 100 µM
HOP-62 NSCLC
  TGI: > 100 µM
HS 578T breast
  TGI: > 100 µM
HT29 colon
  TGI: > 100 µM
IGROV1 ovarian
  TGI: 77.9 µM
K-562 leukemia
  TGI: > 100 µM
KM12 colon
  TGI: > 100 µM
LOX IMVI melanoma
  TGI: > 100 µM
M14 melanoma
  TGI: > 100 µM
MALME-3M melanoma
  TGI: > 100 µM
MCF7 breast
  TGI: > 100 µM
MDA-MB-231 breast
  TGI: > 100 µM
MDA-MB-435
  TGI: > 100 µM
MDA-N
  TGI: > 100 µM
MOLT-4 leukemia
  TGI: > 100 µM
NCI-H226 lung
  TGI: 79.3 µM
NCI-H23 lung
  TGI: > 100 µM
NCI-H460 lung
  TGI: > 100 µM
NCI/ADR-RES ovarian
  TGI: > 100 µM
OVCAR-3 ovarian
  TGI: > 100 µM
OVCAR-4 ovarian
  TGI: > 100 µM
OVCAR-5 ovarian
  TGI: > 100 µM
OVCAR-8 ovarian
  TGI: > 100 µM
PC-3 prostate
  TGI: > 100 µM
RPMI-8226 leukemia
  TGI: > 100 µM
SF-268 CNS
  TGI: > 100 µM
SF-295 CNS
  TGI: > 100 µM
SF-539 CNS
  TGI: > 100 µM
SK-MEL-2 melanoma
  TGI: > 100 µM
SK-MEL-28 melanoma
  TGI: > 100 µM
SK-MEL-5 melanoma
  TGI: 74.6 µM
SK-OV-3 ovarian
  TGI: > 100 µM
SN12C renal
  TGI: > 100 µM
SNB-19 CNS
  TGI: > 100 µM
SNB-75 CNS
  TGI: > 100 µM
SR leukemia
  TGI: > 100 µM
SW-620 colon
  TGI: > 100 µM
T-47D breast
  TGI: 77.2 µM
TK-10 renal
  TGI: > 100 µM
U251 CNS
  TGI: > 100 µM
UACC-257 melanoma
  TGI: > 100 µM
UACC-62 melanoma
  TGI: > 100 µM
UO-31 renal
  TGI: > 100 µM

## COc1cc(C2S/C(=C/c3ccccc3)C(=O)N2c2cc(Cl)ccc2Cl)cc(OC)c1OC (configuration not stated)
786-0 renal
  TGI: 41.3 µM
A498 renal
  TGI: > 100 µM
A549 NSCLC
  TGI: > 100 µM
ACHN renal
  TGI: > 100 µM
BT-549 breast
  TGI: > 100 µM
CAKI-1 renal
  TGI: > 100 µM
CCRF-CEM leukemia
  TGI: > 100 µM
COLO 205 colon
  TGI: > 100 µM
DU-145 prostate
  TGI: > 100 µM
EKVX NSCLC
  TGI: > 100 µM
HCC-2998 colon
  TGI: > 100 µM
HCT-116 colon
  TGI: 28.1 µM
HCT-15 colon
  TGI: > 100 µM
HL-60(TB) leukemia
  TGI: > 100 µM
HOP-62 NSCLC
  TGI: > 100 µM
HOP-92 NSCLC
  TGI: > 100 µM
HT29 colon
  TGI: > 100 µM
IGROV1 ovarian
  TGI: 68.3 µM
K-562 leukemia
  TGI: > 100 µM
KM12 colon
  TGI: 38.8 µM
LOX IMVI melanoma
  TGI: 36.1 µM
M14 melanoma
  TGI: 62.4 µM
MALME-3M melanoma
  TGI: > 100 µM
MCF7 breast
  TGI: > 100 µM
MDA-MB-231 breast
  TGI: > 100 µM
MDA-MB-435
  TGI: > 100 µM
MDA-N
  TGI: > 100 µM
MOLT-4 leukemia
  TGI: > 100 µM
NCI-H226 lung
  TGI: > 100 µM
NCI-H23 lung
  TGI: > 100 µM
NCI-H460 lung
  TGI: > 100 µM
NCI-H522 lung
  TGI: 50.4 µM
NCI/ADR-RES ovarian
  TGI: > 100 µM
OVCAR-3 ovarian
  TGI: > 100 µM
OVCAR-8 ovarian
  TGI: > 100 µM
PC-3 prostate
  TGI: > 100 µM
RPMI-8226 leukemia
  TGI: > 100 µM
RXF 393 renal
  TGI: > 100 µM
SF-268 CNS
  TGI: 53.1 µM
SF-295 CNS
  TGI: > 100 µM
SF-539 CNS
  TGI: 42.9 µM
SK-MEL-2 melanoma
  TGI: > 100 µM
SK-MEL-28 melanoma
  TGI: > 100 µM
SK-MEL-5 melanoma
  TGI: > 100 µM
SK-OV-3 ovarian
  TGI: > 100 µM
SN12C renal
  TGI: > 100 µM
SNB-19 CNS
  TGI: > 100 µM
SR leukemia
  TGI: > 100 µM
SW-620 colon
  TGI: > 100 µM
T-47D breast
  TGI: > 100 µM
TK-10 renal
  TGI: > 100 µM
U251 CNS
  TGI: > 100 µM
UACC-257 melanoma
  TGI: > 100 µM
UACC-62 melanoma
  TGI: > 100 µM
UO-31 renal
  TGI: > 100 µM
